Results: ChEMBL document CHEMBL1158422, “A library of novel allosteric inhibitors against fructose 1,6-bisphosphatase” (Bioorg Med Chem, 2009)
Where “and” joins values, the source holds several entries; their conditions need not be identical. Equal entries are not always repeated. Calls of active or inactive are those of the source. The calls are words filed in the database; no cut-off is given here.

target: T1, Fructose-1,6-bisphosphatase 1 (Sus scrofa) (UniProt P00636); assay: Inhibition of pig FBPase expressed in Escherichia coli EK1601 up to 300 uM by spectrophotometry; details: not given
T1 sequence (whole entry): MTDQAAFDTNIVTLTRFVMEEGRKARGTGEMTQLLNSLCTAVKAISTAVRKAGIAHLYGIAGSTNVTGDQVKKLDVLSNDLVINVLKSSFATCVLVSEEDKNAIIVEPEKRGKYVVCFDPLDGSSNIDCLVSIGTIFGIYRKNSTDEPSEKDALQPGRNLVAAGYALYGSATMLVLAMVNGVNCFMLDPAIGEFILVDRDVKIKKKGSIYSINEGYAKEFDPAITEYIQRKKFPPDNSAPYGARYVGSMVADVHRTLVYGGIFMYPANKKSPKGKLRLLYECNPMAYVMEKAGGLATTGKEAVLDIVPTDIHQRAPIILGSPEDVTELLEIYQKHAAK

| inhibition | SMILES |
| --- | --- |
| inactive | O=[N+]([O-])c1cccc(Nc2nc(-c3ccccc3)cs2)c1 |

target: T1, Fructose-1,6-bisphosphatase 1 (Sus scrofa); assay: Inhibition of pig FBPase expressed in Escherichia coli EK1601 at 100 uM by spectrophotometry; details: not given

| inhibition [%] | SMILES |
| --- | --- |
| 87 | O=[N+]([O-])c1ccc(-c2csc(Nc3ccc(O)cc3)n2)cc1 |

target: T2, Fructose-1,6-bisphosphatase 1 (Sus scrofa, UniProt P00636); assay: Inhibition of pig FBPase expressed in Escherichia coli EK1601 by spectrophotometry; details: not given
T2 sequence (P00636 whole entry): T1 sequence (whole entry)

| IC50 | SMILES |
| --- | --- |
| Not Active | O=[N+]([O-])c1ccc(-c2csc(Nc3ccccc3)n2)cc1 |
| Not Active | O=[N+]([O-])c1ccc(Nc2nc(-c3ccccc3)cs2)cc1 |

same assay, conditions: read-out: IC50

| SMILES | IC50 |
| --- | --- |
| Oc1ccc(-c2csc(Nc3ccccc3O)n2)c(O)c1 | 20 µM |
| Nc1nc(-c2ccccc2)cs1 | 1390 µM |
| O=[N+]([O-])c1cccc(Nc2nc(-c3ccc(O)cc3)cs2)c1 | 48 µM |
| O=C(O)c1cccc(Nc2nc(-c3ccc(O)cc3)cs2)c1 | 48 µM |
| NS(=O)(=O)c1cccc(Nc2nc(-c3ccccc3)cs2)c1 | 104 µM |
| NS(=O)(=O)c1ccc(Nc2nc(-c3ccc(O)cc3)cs2)cc1 | 32 µM and 31.6 µM |
| Oc1cccc(Nc2nc(-c3ccccc3)cs2)c1 | 35 µM |
| Oc1ccccc1-c1csc(Nc2ccccc2)n1 | 119 µM |
| Nc1nc(-c2ccc(O)cc2O)cs1 | 93 µM |
| Oc1ccc(-c2csc(Nc3ccccc3O)n2)cc1 | 15 µM |
| Oc1ccc(-c2csc(Nc3ccccc3)n2)c(O)c1 | 343 µM |
| O=C(O)c1cccc(Nc2nc(-c3ccccc3)cs2)c1 | 571 µM |
| Oc1ccc(Nc2nc(-c3ccccc3)cs2)cc1 | 124 µM |
| Oc1ccc(-c2csc(Nc3cccc(O)c3)n2)cc1 | 13 µM |
| O=C(O)c1ccc(S(=O)(=O)c2ccc(C(=O)O)cc2)cc1 | 750 µM |
| c1ccc(Nc2nc(-c3ccccc3)cs2)cc1 | 2500 µM |
| Nc1nc(-c2ccc(O)cc2)cs1 | 1.1 µM |
| Oc1ccccc1Nc1nc(-c2ccccc2)cs1 | 270 µM |
| CCc1c(C)sc(NC(=S)NCc2ccccn2)c1C(=O)OC | 20 µM |
| Nc1ncnc2c1ncn2[C@@H]1O[C@H](COP(=O)(O)O)[C@@H](O)[C@H]1O [ADENOSINE PHOSPHATE] | 1.3 µM |
| NS(=O)(=O)c1ccc(Nc2nc(-c3ccccc3)cs2)cc1 | 145 µM |
| Cc1cc(C)n(CC(O)COc2ccc3ccccc3c2)n1 (stereo not drawn) | 3000 µM |
| NS(=O)(=O)c1ccc(Nc2nc(-c3ccc(O)cc3O)cs2)cc1 | 55 µM |
| Oc1ccc(Nc2nc(-c3ccc(O)cc3O)cs2)cc1 | 11 µM |
| Oc1cccc(Nc2nc(-c3ccc(O)cc3O)cs2)c1 | 6 µM |
| O=[N+]([O-])c1ccc(Nc2nc(-c3ccc(O)cc3)cs2)cc1 | 246 µM |
| NS(=O)(=O)c1cccc(Nc2nc(-c3ccc(O)cc3)cs2)c1 | 50 µM |
| Oc1ccc(Nc2nc(-c3ccc(O)cc3)cs2)cc1 | 48 µM |
| Oc1ccc(-c2csc(Nc3ccccc3)n2)cc1 | 318 µM |
